In PubChem BioAssay (NCI):
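Protocol summary: plate cells (96-well), add compound at 5 concentrations, incubate 48 h, interpolate endpoints linearly. TGI marks complete inhibition of growth.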

Assays:
Experiment in all cases: DTP human tumour cell line panel, 48 h
M19-MEL melanoma = tested on: M19-MEL melanoma
LOX IMVI melanoma = tested on: LOX IMVI melanoma
U251 CNS = tested on: U251 CNS
HOP-62 NSCLC = tested on: HOP-62 NSCLC
MOLT-4 leukemia = tested on: MOLT-4 leukemia
OVCAR-5 ovarian = tested on: OVCAR-5 ovarian
KM20L2 colon = tested on: KM20L2 colon
SW-620 colon = tested on: SW-620 colon
NCI-H460 lung = tested on: NCI-H460 lung
M14 melanoma = tested on: M14 melanoma
786-0 renal = tested on: 786-0 renal
UO-31 renal = tested on: UO-31 renal
HL-60(TB) leukemia = tested on: HL-60(TB) leukemia
HCT-15 colon = tested on: HCT-15 colon
NCI-H23 lung = tested on: NCI-H23 lung
OVCAR-8 ovarian = tested on: OVCAR-8 ovarian
A549 NSCLC = tested on: A549 NSCLC
NCI-H522 lung = tested on: NCI-H522 lung
SF-268 CNS = tested on: SF-268 CNS
EKVX NSCLC = tested on: EKVX NSCLC
CAKI-1 renal = tested on: CAKI-1 renal
SK-MEL-5 melanoma = tested on: SK-MEL-5 melanoma
SR leukemia = tested on: SR leukemia
UACC-62 melanoma = tested on: UACC-62 melanoma
LXFL 529 NSCLC = tested on: LXFL 529 NSCLC
OVCAR-3 ovarian = tested on: OVCAR-3 ovarian
RXF 393 renal = tested on: RXF 393 renal
A498 renal = tested on: A498 renal
XF 498 CNS = tested on: XF 498 CNS
SNB-78 CNS = tested on: SNB-78 CNS
KM12 colon = tested on: KM12 colon
RXF-631 renal = tested on: RXF-631 renal
HT29 colon = tested on: HT29 colon
UACC-257 melanoma = tested on: UACC-257 melanoma
OVCAR-4 ovarian = tested on: OVCAR-4 ovarian
MALME-3M melanoma = tested on: MALME-3M melanoma
SK-OV-3 ovarian = tested on: SK-OV-3 ovarian
SF-539 CNS = tested on: SF-539 CNS
TK-10 renal = tested on: TK-10 renal
SNB-75 CNS = tested on: SNB-75 CNS
SNB-19 CNS = tested on: SNB-19 CNS
HCT-116 colon = tested on: HCT-116 colon
IGROV1 ovarian = tested on: IGROV1 ovarian
ACHN renal = tested on: ACHN renal
DLD-1 colon = tested on: DLD-1 colon
HOP-92 NSCLC = tested on: HOP-92 NSCLC
DMS 114 small cell lung = tested on: DMS 114 small cell lung
SN12C renal = tested on: SN12C renal
SK-MEL-28 melanoma = tested on: SK-MEL-28 melanoma
K-562 leukemia = tested on: K-562 leukemia
SK-MEL-2 melanoma = tested on: SK-MEL-2 melanoma
DMS 273 small cell lung = tested on: DMS 273 small cell lung
NCI-H226 lung = tested on: NCI-H226 lung
HOP-18 NSCLC = tested on: HOP-18 NSCLC
RPMI-8226 leukemia = tested on: RPMI-8226 leukemia
COLO 205 colon = tested on: COLO 205 colon
CCRF-CEM leukemia = tested on: CCRF-CEM leukemia
SF-295 CNS = tested on: SF-295 CNS

CC1=NC(C)=C(/C(C)=N/NC(=O)c2ccccc2O)C(C)/C1=C(/C)NNC(=O)c1ccccc1O (stereo unspecified)
TGI (M19-MEL melanoma): > 100 µM | TGI (LOX IMVI melanoma): 51.7 µM | TGI (U251 CNS): > 100 µM | TGI (HOP-62 NSCLC): > 100 µM | TGI (MOLT-4 leukemia): 23.8 µM | TGI (OVCAR-5 ovarian): 92.1 µM | TGI (KM20L2 colon): > 100 µM | TGI (SW-620 colon): > 100 µM | TGI (NCI-H460 lung): 66.6 µM | TGI (M14 melanoma): > 100 µM | TGI (786-0 renal): 44.3 µM | TGI (UO-31 renal): 43.1 µM | TGI (HL-60(TB) leukemia): 22.4 µM | TGI (HCT-15 colon): 99 µM | TGI (NCI-H23 lung): 26.9 µM | TGI (OVCAR-8 ovarian): 50.5 µM | TGI (A549 NSCLC): 96.5 µM | TGI (NCI-H522 lung): 43.6 µM | TGI (SF-268 CNS): > 100 µM | TGI (EKVX NSCLC): 48.4 µM | TGI (CAKI-1 renal): > 100 µM | TGI (SK-MEL-5 melanoma): 38.9 µM | TGI (SR leukemia): 42.5 µM | TGI (UACC-62 melanoma): 26.3 µM | TGI (LXFL 529 NSCLC): > 100 µM | TGI (OVCAR-3 ovarian): 66.7 µM | TGI (RXF 393 renal): 26.2 µM | TGI (A498 renal): 99.6 µM | TGI (XF 498 CNS): 85.9 µM | TGI (SNB-78 CNS): > 100 µM | TGI (KM12 colon): > 100 µM | TGI (RXF-631 renal): > 100 µM | TGI (HT29 colon): > 100 µM | TGI (UACC-257 melanoma): 76.6 µM | TGI (OVCAR-4 ovarian): 48.4 µM | TGI (MALME-3M melanoma): 80.8 µM | TGI (SK-OV-3 ovarian): > 100 µM | TGI (SF-539 CNS): 76.2 µM | TGI (TK-10 renal): 98.8 µM | TGI (SNB-75 CNS): 93.6 µM | TGI (SNB-19 CNS): > 100 µM | TGI (HCT-116 colon): 48.3 µM | TGI (IGROV1 ovarian): 33 µM | TGI (ACHN renal): 86.4 µM | TGI (DLD-1 colon): > 100 µM | TGI (HOP-92 NSCLC): 85.9 µM | TGI (DMS 114 small cell lung): 44.1 µM | TGI (SN12C renal): > 100 µM | TGI (SK-MEL-28 melanoma): > 100 µM | TGI (K-562 leukemia): 35.3 µM

OCC1CC2C=CCC(C2)C1 (stereo unspecified)
TGI (M19-MEL melanoma): > 100 µM | TGI (LOX IMVI melanoma): > 100 µM | TGI (U251 CNS): > 100 µM | TGI (HOP-62 NSCLC): > 100 µM | TGI (MOLT-4 leukemia): > 100 µM | TGI (OVCAR-5 ovarian): > 100 µM | TGI (KM20L2 colon): > 100 µM | TGI (SK-MEL-2 melanoma): > 100 µM | TGI (SW-620 colon): > 100 µM | TGI (NCI-H460 lung): > 100 µM | TGI (DMS 273 small cell lung): > 100 µM | TGI (M14 melanoma): > 100 µM | TGI (786-0 renal): > 100 µM | TGI (UO-31 renal): > 100 µM | TGI (HL-60(TB) leukemia): > 100 µM | TGI (NCI-H23 lung): > 100 µM | TGI (OVCAR-8 ovarian): > 100 µM | TGI (A549 NSCLC): > 100 µM | TGI (NCI-H522 lung): > 100 µM | TGI (SF-268 CNS): > 100 µM | TGI (EKVX NSCLC): > 100 µM | TGI (CAKI-1 renal): > 100 µM | TGI (SK-MEL-5 melanoma): > 100 µM | TGI (SR leukemia): > 100 µM | TGI (NCI-H226 lung): > 100 µM | TGI (UACC-62 melanoma): > 100 µM | TGI (LXFL 529 NSCLC): > 100 µM | TGI (OVCAR-3 ovarian): > 100 µM | TGI (RXF 393 renal): > 100 µM | TGI (A498 renal): > 100 µM | TGI (XF 498 CNS): > 100 µM | TGI (SNB-78 CNS): > 100 µM | TGI (KM12 colon): > 100 µM | TGI (HOP-18 NSCLC): > 100 µM | TGI (HT29 colon): > 100 µM | TGI (UACC-257 melanoma): > 100 µM | TGI (OVCAR-4 ovarian): > 100 µM | TGI (MALME-3M melanoma): > 100 µM | TGI (SK-OV-3 ovarian): > 100 µM | TGI (SF-539 CNS): > 100 µM | TGI (TK-10 renal): > 100 µM | TGI (RPMI-8226 leukemia): > 100 µM | TGI (COLO 205 colon): > 100 µM | TGI (SNB-75 CNS): > 100 µM | TGI (CCRF-CEM leukemia): > 100 µM | TGI (SNB-19 CNS): > 100 µM | TGI (HCT-116 colon): > 100 µM | TGI (IGROV1 ovarian): > 100 µM | TGI (SF-295 CNS): > 100 µM | TGI (ACHN renal): > 100 µM | TGI (DLD-1 colon): > 100 µM | TGI (HOP-92 NSCLC): > 100 µM | TGI (DMS 114 small cell lung): > 100 µM | TGI (SN12C renal): > 100 µM | TGI (SK-MEL-28 melanoma): > 100 µM | TGI (K-562 leukemia): > 100 µM
